{"source": "patent US11998028B2", "about": "“Polypeptide for hydrolytic cleavage of zearalenone and/or zearalenone derivatives, isolated polynucleotide thereof as well as a polypeptide containing an additive, use of same as well as a process” (priority 2013, dated 2024)", "key": {"estrogenic effect": {"system": "estrogenic effect", "settings": "cited from earlier work"}, "[1]": {"settings": "relatively low acute toxicity; cited from earlier work"}, "cattle": {"system": "cattle", "settings": "cited from earlier work"}, "[2]": {"system": "polypeptide (hydrolase / zonase) with sequence ID no. 1, C-terminal 6×His tag", "experiment": "Enzyme kinetics of ZEN hydrolysis to HZEN, photometric at 315 nm", "format": "biochemical", "settings": "ZEN substrate, 50 mM Tris-HCl pH 8.2, 32° C.", "procedure": "The soluble cell lysate in the case of E. coli and/or the culture supernatant in the case of P. pastoris was/were used for determination of the catalytic properties of the polypeptides. To determine the KM value, vmax, kcat and the specific activity, the polypeptides were selectively enriched chromatographically by standard methods over nickel-Sepharose columns. The determination of the protein concentration was performed by means of standard methods, either being calculated by the BCA method (Pierce BCA Protein Assay KitProd #23225) or preferably photometrically with the specific extinction coefficients for the respective proteins that are available online with the ProtParam program at http://web.expasy.org/protparam (Gasteiger E. et al.; Protein Identification and Analysis Tools on the ExPASy Server, in John M. Walker (ed): The Proteomics Protocols Handbook, Humana Press, 2005, pp. 571-607).\nThe preparation, enrichment and purification of the polypeptides and/or variants thereof were performed as described in example 1. Degradation of ZEN to HZEN was measured on the basis of the reduction in absorption at the wavelength of 315 nm. […] The extinction coefficients have a strong dependence on pH and therefore the activity must always be measured precisely at the same pH and preferably also in the same matrix. The measurements were performed in a 50 mM Tris-HCl pH=8.2 buffer solution in quartz cuvettes in a wavelength range of 200 to 2500 nm in a UV-VIS photometer (Hitachi U-2001) at 32° C.\nA 2.08 mM ZEN solution (40 vol % ACN+60 vol % H2O) was used as the ZEN substrate stock solution. To prepare this solution, ZEN in crystalline form (Biopure Standard from Romer Labs, article no. 001109, purity at least 98%) was weighed and dissolved accordingly. The ZEN substrate dilutions (0.79 μM, 1.57 μM, 2.36 μM, 3.14 μM, 4.71 μM, 6.28 μM, 7.85 μM, 9.42 μM, 10.99 μM, 12.56 μM, 14.13 μM, 15.71 μM, 17.28 μM and 18.85 μM) were prepared with 50 mM Tris-HCl pH=8.2. The polypeptide solutions were diluted to a final concentration of approximately 70 ng/mL using 50 mM Tris-HCl buffer pH=8.2. The ZEN substrate dilutions were preheated to 32° C. in a water bath.\n100 μL portions of the respective ZEN substrate dilution were mixed with 0.2 μL polypeptide solution, and the absorption was measured for 5 minutes, whereupon each combination of polypeptide solution and ZEN substrate dilution was measured at least twice.\nTaking into account the extinction coefficients of ZEN and HZEN, the reaction rate was calculated for each substance concentration on the basis of the slope in the absorption over time.\nThe designations “KM value” or “Michaelis-Menten constant” relate to a parameter for describing the enzymatic affinity of the units μM or mM, which are calculated with the help of the linear Hanes plots according to H. Bisswang (2002, Enzyme Kinetics, ISBN 3-527-30343-X, page 19), wherein the function “enzyme kinetics, single substrate” in the SigmaPlot 12.0 program is preferably used for this purpose. The designations “catalytic constant of the enzyme reaction” or “kcat value” relate to a parameter for describing the conversion rate of a polypeptide and/or enzyme, which is given in s^−1 and is preferably calculated with the help of the “enzyme kinetic, single substrate” function of the SigmaPlot 12.0 program. The “maximum enzyme rate” or “vmax value” is given in units of μM/s or mM/s and is determined with the help of the linear Hanes plot by analogy with the KM value, wherein the function “enzyme kinetic, single substrate” of the SigmaPlot 12.0 program is preferably used for this.\nThe raw data for determination of the enzyme parameters KM, vmax, kcat and the specific activity are given below for the polypeptide having the sequence ID no. 1."}, "[3]": {"settings": "cited from earlier work"}, "[4]": {"system": "mammalian animals, in particular pigs", "settings": "cited from earlier work"}, "estrogen receptor": {"system": "estrogen receptor", "settings": "cited from earlier work"}, "pigs": {"system": "pigs", "settings": "cited from earlier work"}}, "data": [{"smiles": "C[C@H]1CCCC(=O)CCCCCc2cc(O)cc(O)c2C(=O)O1", "note": "[ZAN, (11S)-15,17-dihydroxy-11-methyl-12-oxabicyclo-[12.4.0]octadeca-1(18),14,16-triene-7,13-dione]", "values": [{"measurement": "estrogenic effect compared with ZEN", "setting": "estrogenic effect", "value": "much stronger estrogenic effect than ZEN"}]}, {"smiles": "C[C@H]1CCCC(=O)CCC/C=C/c2cc(O)cc(O)c2C(=O)O1", "note": "[ZEN, (2E,11S)-15,17-dihydroxy-11-methyl-12-oxabicyclo[12.4.0]octadeca-1(18),2,14,16-tetraene-7,13-dione]", "values": [{"measurement": "oral LD50", "setting": "[1]", "value": "up to 20,000 mg/kg body weight"}, {"measurement": "ZEN concentration blamed for spontaneous abortions", "setting": "cattle", "value": 12, "unit": "ppm"}, {"measurement": "Km", "setting": "[2]; Average", "value": 0.204, "unit": "µM"}, {"measurement": "Vmax", "setting": "[2]; Average", "value": 0.009343, "unit": "µM/s"}, {"measurement": "kcat", "setting": "[2]; Average", "value": 5.12, "unit": "s⁻¹"}, {"measurement": "Km", "setting": "[2]; Measurement 1", "value": 0.217, "unit": "µM"}, {"measurement": "Vmax", "setting": "[2]; Measurement 1", "value": 0.00993, "unit": "µM/s"}, {"measurement": "kcat", "setting": "[2]; Measurement 1", "value": 5.44, "unit": "s⁻¹"}, {"measurement": "Km", "setting": "[2]; Measurement 2", "value": 0.19, "unit": "µM"}, {"measurement": "Vmax", "setting": "[2]; Measurement 2", "value": 0.008756, "unit": "µM/s"}, {"measurement": "kcat", "setting": "[2]; Measurement 2", "value": 4.79, "unit": "s⁻¹"}, {"measurement": "absorption through the mucous membranes", "setting": "[3]; in particular gastric mucosa and oral mucosa", "value": "absorbed rapidly"}, {"measurement": "time after oral administration at which ZEN can be detected in blood", "setting": "[3]; oral administration", "value": 30, "unit": "min"}, {"measurement": "ZEN concentration in feed resulting in developmental disorders", "setting": "[4]", "value": "more than 0.5 ppm"}, {"measurement": "binding to the estrogen receptor", "setting": "estrogen receptor", "value": "binds to the estrogen receptor"}, {"measurement": "ZEN concentration that can result in hyperestrogenicity", "setting": "pigs", "value": "more than 1.5 ppm"}]}, {"smiles": "C[C@H]1CCC[C@H](O)CCCCCc2cc(O)cc(O)c2C(=O)O1", "note": "[α-ZAL, (7R,11S)-7,15,17-trihydroxy-11-methyl-12-oxabicyclo[12.4.0]octa-deca-1(18),14,16-trien-13-one]", "values": [{"measurement": "estrogenic effect compared with ZEN", "setting": "estrogenic effect", "value": "much stronger estrogenic effect than ZEN"}]}, {"smiles": "C[C@H]1CCC[C@H](O)CCC/C=C/c2cc(O)cc(O)c2C(=O)O1", "note": "[α-ZEL, (2E,7R,11S)-7,15,17-trihydroxy-11-methyl-12-oxabicyclo[12.4.0]-octadeca-1(18),2,14,16-tetraen-13-one]", "values": [{"measurement": "estrogenic effect compared with ZEN", "setting": "estrogenic effect", "value": "much stronger estrogenic effect than ZEN"}]}]}
